Results: US7273848B2, “Apolipoprotein A-I agonists and their use to treat dyslipidemic disorders” (priority 1997, dated 2007)
Non-standard residues stand in square brackets, D forms with d. Residues, ends and D or L forms follow the SMILES beside them. No end group written: not given here. Aib = CC(C)(N)C(=O)O

Biological target: T1, LCAT (purified from human plasma) (Homo sapiens, UniProt P04180)
T1 construct: from tissue; host or cells: human plasma
T1 sequence (P04180 25-440): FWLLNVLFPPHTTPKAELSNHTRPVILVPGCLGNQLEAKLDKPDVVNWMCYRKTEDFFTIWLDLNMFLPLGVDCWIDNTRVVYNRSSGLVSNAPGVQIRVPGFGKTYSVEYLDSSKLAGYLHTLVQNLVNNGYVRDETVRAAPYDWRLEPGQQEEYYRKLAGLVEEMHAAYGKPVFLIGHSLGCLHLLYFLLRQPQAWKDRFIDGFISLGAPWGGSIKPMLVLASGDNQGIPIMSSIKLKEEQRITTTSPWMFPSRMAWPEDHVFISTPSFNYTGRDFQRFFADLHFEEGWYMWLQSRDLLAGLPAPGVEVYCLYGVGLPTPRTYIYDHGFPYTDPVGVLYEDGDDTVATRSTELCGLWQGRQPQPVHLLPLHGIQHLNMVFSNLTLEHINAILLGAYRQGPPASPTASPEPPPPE
Assay: LCAT activation assay
Type: biochemical
Conditions: LCAT activation as compared with native human ApoA-I (= 100%), equivalent masses
How it was run: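 Substrate SUVs of EPC or POPC with 14C-cholesterol (20:1 molar ratio), in 10 mM Tris, 0.14 M NaCl, 1 mM EDTA, pH 7.4, were preincubated with peptide or equal mass of plasma ApoA-I. Reaction started with human plasma LCAT; activation was measured as cholesterol-to-ester conversion relative to ApoA-I (100%).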

Question: For `CC(C)C[C@H](NC(=O)[C@H](C)NC(=O)[C@H](CCC(=O)O)NC(=O)[C@H](CO)NC(=O)C(C)(C)NC(=O)[C@H](CCC(=O)O)NC(=O)[C@H](CC(N)=O)NC(=O)[C@H](CC(C)C)NC(=O)[C@H](CCCCN)NC(=O)[C@H](CCC(=O)O)NC(=O)[C@H](CCCNC(=N)N)NC(=O)[C@H](Cc1ccccc1)NC(=O)[C@H](CCC(=O)O)NC(=O)[C@H](CC(=O)O)NC(=O)[C@H](CC(C)C)NC(=O)[C@@H](NC(=O)[C@@H]1CCCN1)C(C)C)C(=O)N[C@@H](CCCCN)C(=O)N[C@@H](CCC(N)=O)C(=O)N[C@@H](CCCCN)C(=O)N[C@@H](CC(C)C)C(=O)N[C@@H](CCCCN)C(=O)O` [compound 112, PVLDEFREKLNEXSEALKQKLK] (H-PVLDEFREKLNE[Aib]SEALKQKLK-OH), which “ACTIVITY (%) LCAT” value is on record?
Answer: Its value is 0%.

Question: Which “ACTIVITY (%) LCAT” value does the source give for PVLELFLNLLERLLDWLQKKLK [compound 158] here?
Answer: The value was 30%.

Question: PVLELFDNLLEKLLEALQKKLR [compound 178] was tested. Which “ACTIVITY (%) LCAT” value did it give?
Answer: The value was 9%.

Question: PVLDEFREKLNEELEALWQKLK [compound 121] was tested. Which “ACTIVITY (%) LCAT” value did it give?
Answer: Its value is 0%.

Question: “Ac-PVLDLFRELLNELLQKLK-NH2 [compound 218]” was tested. Which “ACTIVITY (%) LCAT” value did it give?
Answer: Its value is 29%.

Question: With “Ac-DVLDLFRELLEELKQKLK-NH2 [compound 221]” as the compound, how does the “ACTIVITY (%) LCAT” value read?
Answer: The value was 12%.

Question: Which “ACTIVITY (%) LCAT” value does the source give for “Ac-PVLDFFRELLEELKQKLK-NH2 [compound 204]” here?
Answer: The value was 63%.

Question: How did the “ACTIVITY (%) LCAT” value turn out when PVLELFENLGERLLDALQKKLK [peptide 151] was run?
Answer: The value was 55%.

Question: How did the “ACTIVITY (%) LCAT” value turn out when `CC(C)C[C@H](NC(=O)[C@H](C)NC(=O)[C@H](CCC(=O)O)NC(=O)[C@H](CC(C)C)NC(=O)[C@H](CC(C)C)NC(=O)[C@H](CCC(=O)O)NC(=O)[C@H](CC(N)=O)NC(=O)[C@H](CC(C)C)NC(=O)[C@H](CC(C)C)NC(=O)[C@H](CCC(=O)O)NC(=O)[C@H](CCCNC(=N)N)NC(=O)[C@H](Cc1ccccc1)NC(=O)[C@H](CC(C)C)NC(=O)[C@H](CC(=O)O)NC(=O)[C@H](CC(C)C)NC(=O)[C@@H](NC(=O)[C@H]1CCCN1)C(C)C)C(=O)N[C@@H](CCCCN)C(=O)N[C@@H](CCC(N)=O)C(=O)N[C@@H](CCCCN)C(=O)N[C@@H](CC(C)C)C(=O)N[C@@H](CCCCN)C(=O)N[C@@H](CCCCN)C(=O)O` [compound 5] was run?
Answer: The value was 90%.

Question: PVLDLFKELLQELLEALKQKLK [compound 11] was tested. Which “ACTIVITY (%) LCAT” value did it give?
Answer: The value was 72%.

Question: How did the “ACTIVITY (%) LCAT” value turn out when PVLDLFRELLNELLEAGKQKLK [compound 12] was run?
Answer: The value was 70%.

Question: Which “ACTIVITY (%) LCAT” value does the source give for GVLDLFRELLNEGLEALKQKLK [compound 13] here?
Answer: Its value is 67%.

Question: How did the “ACTIVITY (%) LCAT” value turn out when “Ac-PVLDLLRELLEELKQKLK-NH2 [compound 191]” was run?
Answer: Its value is 100%.

Question: With AVLELFENLLERLLDALQKKLK [peptide 153] as the compound, how does the “ACTIVITY (%) LCAT” value read?
Answer: The value was 49%.

Question: PVLDLFREGLNELLEALKQKLK [compound 20] was tested. Which “ACTIVITY (%) LCAT” value did it give?
Answer: Its value is 57%.

Question: With PVLELFENLLEKLLEALQKKLK [compound 182] as the compound, how does the “ACTIVITY (%) LCAT” value read?
Answer: The value was 7%.

Question: How did the “ACTIVITY (%) LCAT” value turn out when PVLELFEQLLEKLLDALQKKLK [compound 168] was run?
Answer: Its value is 17%.

Question: Which “ACTIVITY (%) LCAT” value does the source give for PVLELFDNLLERLLDALQKKLK [compound 179] here?
Answer: The value was 8%.

Question: For PVLELFENGLERLLDALQKKLK [compound 167], which “ACTIVITY (%) LCAT” value is on record?
Answer: Its value is 18%.

Question: For PVLDEFRELLNEELEALKQKLK [compound 103], which “ACTIVITY (%) LCAT” value is on record?
Answer: Its value is 1%.

Question: For `CC(C)C[C@H](NC(=O)[C@H](C)NC(=O)[C@H](CCC(=O)O)NC(=O)[C@H](CC(C)C)NC(=O)C(C)(C)NC(=O)[C@H](CCC(=O)O)NC(=O)[C@H](CC(N)=O)NC(=O)[C@H](CC(C)C)NC(=O)[C@H](CCCCN)NC(=O)[C@H](CCC(=O)O)NC(=O)[C@H](CCCNC(=N)N)NC(=O)[C@H](Cc1ccccc1)NC(=O)[C@H](CCC(=O)O)NC(=O)[C@H](CC(=O)O)NC(=O)[C@H](Cc1c[nH]c2ccccc12)NC(=O)[C@@H](NC(=O)[C@@H]1CCCN1)C(C)C)C(=O)N[C@@H](CCCCN)C(=O)N[C@@H](CCC(N)=O)C(=O)N[C@@H](CCCCN)C(=O)N[C@@H](CC(C)C)C(=O)N[C@@H](CCCCN)C(=O)O` [compound 52, PVWDEFREKLNEXLEALKQKLK] (H-PVWDEFREKLNE[Aib]LEALKQKLK-OH), which “ACTIVITY (%) LCAT” value is on record?
Answer: The value was 20%.

Question: Which “ACTIVITY (%) LCAT” value does the source give for “Ac-PVLDLFREGLEELKQKLK-NH2 [compound 228]” here?
Answer: Its value is 0%.

Question: With `CC(C)C[C@H](NC(=O)[C@H](C)NC(=O)[C@H](CCC(=O)O)NC(=O)[C@H](CC(C)C)NC(=O)C(C)(C)NC(=O)[C@H](CCC(=O)O)NC(=O)[C@H](CC(N)=O)NC(=O)[C@H](CC(C)C)NC(=O)[C@H](CCCCN)NC(=O)[C@H](CCC(=O)O)NC(=O)[C@H](CCCNC(=N)N)NC(=O)[C@H](Cc1ccccc1)NC(=O)[C@H](CCC(=O)O)NC(=O)[C@@H](N)CC(=O)O)C(=O)N[C@@H](CCCCN)C(=O)N[C@@H](CCC(N)=O)C(=O)N[C@@H](CCCCN)C(=O)N[C@@H](CC(C)C)C(=O)N[C@@H](CCCCN)C(=O)O` [compound 90, ~~~DEFREKLNEXLEALKQKLK] (H-DEFREKLNE[Aib]LEALKQKLK-OH) as the compound, how does the “ACTIVITY (%) LCAT” value read?
Answer: The value was 6%.
